Measured values published in ChEMBL document CHEMBL2113921, “Open Source Malaria Deposition 1. http://malaria.ourexperiment.org” (2013).
≈ marks a conversion by molar mass, not a printed value.

Experiments:
Plasmodium falciparum [1] = experiment: OSM: Inhibition of Plasmodium falciparum 3D7 growth using a SYBR green I fluorescence based assay. Dose response curves were generated comprising of 8 points using a 2-fold serial dilution for the maximum final concentration of 1000 nM. Ralph Group, Bio21.; type: functional, organism-based
[2] = OSM: Kinetic solubility pH 6.5 isotonic phosphate buffer.; type: ADME
Plasmodium falciparum [3] = experiment: OSM: Inhibition of Plasmodium falciparum 3D7 growth using a SYBR green I fluorescence based assay. GSK Tres Cantos.; type: functional, organism-based
[4] = OSM: Microsomal stability: 0.5 uM substrate, 0.4 mg/mL protein, NADPH cofactor. Analysed by LC/MS. Degradation rate classification.; type: ADME, Microsome; conditions: human, microsomes
[5] = OSM: Microsomal stability: 0.5 uM substrate, 0.4 mg/mL protein, NADPH cofactor). Analysed by LC/MS. In vitro CLint (uL/min/mg protein).; type: ADME, Microsome; conditions: human, microsomes
[6] = OSM: Microsomal stability: 0.5 uM substrate, 0.4 mg/mL protein, NADPH cofactor. Analysed by LC/MS. Degradation half life (min).; type: ADME, Microsome; conditions: human, microsomes
Plasmodium falciparum [7] = experiment: OSM: Inhibition of Plasmodium falciparum 3D7 growth. IC50 values determined from 21 point dose response curves. Avery Group Griffith.; type: functional, organism-based
Plasmodium falciparum [8] = experiment: OSM: Percent inhibition of Plasmodium falciparum 3D7 growth at 80 uM. Avery Group Griffith.; type: functional
Plasmodium falciparum [9] = experiment: OSM: Late stage gametocytes. IC50 values determined from 21 point dose response curves. Avery Group Griffith.; type: functional, organism-based; conditions: Pfs16-GFP transgenic NF54
[10] = OSM: HEK293 cytotoxicity assay. Duplicate point single experiment at 120 uM. Avery Group, Griffith.; type: toxicity, cell-based; conditions: human, HEK293 cells; read-out: Inhibition
Plasmodium falciparum [11] = experiment: OSM: Percent inhibition of Plasmodium falciparum 3D7 growth at 120 uM. Avery Group Griffith.; type: functional
Plasmodium falciparum K1 [12] = experiment: OSM: Percent inhibition of Plasmodium falciparum K1 growth at 120 uM. Avery Group Griffith.; type: functional
Plasmodium falciparum [13] = experiment: OSM: Percent inhibition of Plasmodium falciparum 3D7 growth at 40 uM. Avery Group Griffith.; type: functional
Plasmodium falciparum K1 [14] = experiment: OSM: Inhibition of Plasmodium falciparum K1 growth. IC50 values determined from 21 point dose response curves. Avery Group Griffith.; type: functional, organism-based
Plasmodium falciparum [15] = experiment: OSM: Percent inhibition of Plasmodium falciparum 3D7 growth at 100 uM. Avery Group Griffith.; type: functional

| Compound | IC50 (Plasmodium falciparum [1]) [nM] | IC50 (Plasmodium falciparum [3]) [nM] | IC50 (Plasmodium falciparum [7]) [nM] | cytotoxicity at 120 µM [10] [%] | inhibition at 120 µM (Plasmodium falciparum [11]) [%] | inhibition at 120 µM (Plasmodium falciparum K1 [12]) [%] | also measured |
| --- | --- | --- | --- | --- | --- | --- | --- |
| Cc1cc(/C=C2\S/C(=N\c3ccccc3)N(C3CCCC3)C2=O)c(C)n1-c1ccc(C(F)(F)F)cc1 | 520 | 276 | 34 |  |  |  | solubility kinetic [2]: 5 µg/mL (≈ 9.81 µM); Relative metabolic rate [4]: Moderate; microsomal CLint at 0.5 µM [5]: 14 µL/min/mg; half-life at 0.5 µM [6]: 121 min |
| Cc1cc(C(=O)NCC(N)=O)c(C)n1-c1ccc(F)cc1 | > 1000 | > 5000 |  |  |  |  | inhibition at 80 µM (Plasmodium falciparum [8]): 25% |
| Cc1cc(/C=C2\S/C(=N\c3ccccc3)NC2=O)c(C)n1-c1ccc(C(F)(F)F)cc1 | 205 | 29 | 2 |  |  |  | solubility kinetic [2]: 3 µg/mL (≈ 6.8 µM); Relative metabolic rate [4]: Low; IC50 (Plasmodium falciparum [9]): 4 nM; microsomal CLint at 0.5 µM [5]: < 7 µL/min/mg; half-life at 0.5 µM [6]: > 250 min |
| Cc1cc(/C=C2\S/C(=N\c3ccccc3)N(c3ccccc3)C2=O)c(C)n1-c1ccc(C(F)(F)F)cc1 | 485 | 372 | 54 |  |  |  |  |
| Cc1c(NC(=O)CNC(=O)c2ccccc2)c(=O)n(-c2ccccc2)n1C |  | > 5000 |  |  |  |  | inhibition at 80 µM (Plasmodium falciparum [8]): 0% |
| CCOC(=O)c1cc(C)n(-c2ccc(C(F)(F)F)cc2)c1C |  |  |  | 75 | 85 | 20 |  |
| Cc1cc(C(=O)CCC(N)=O)c(C)n1-c1ccc(F)cc1 |  |  |  |  |  |  | inhibition at 40 µM (Plasmodium falciparum [13]): 61% |
| Cc1ccc(-n2c(C)cc(C(=O)O)c2C)cc1 |  |  |  | 0 | 70 | 0 |  |
| CC(=O)N(C1=NC(=O)/C(=C/c2cc(C)n(-c3ccc(C)cc3)c2C)S1)c1ccccc1 | 156 | 25 | 326 |  |  |  |  |
| COc1ccc2nc3cc(Cl)ccc3c(Nc3cc(CN4CCCC4)c(O)c(CN4CCCC4)c3)c2n1 [PYRONARIDINE] |  |  | 3.2 |  |  |  | IC50 (Plasmodium falciparum [9]): 2960 nM |
| CC(=O)N(C1=NC(=O)/C(=C/c2cc(C)n(-c3ccc(F)cc3)c2C)S1)c1ccccc1 |  | 47 | 47 | 75 |  |  | Relative metabolic rate [4]: Rapid non-NADPH acetamide hydrolysis to OSM-S-10; IC50 (Plasmodium falciparum [9]): 28 nM; IC50 (Plasmodium falciparum K1 [14]): 66 nM |
| Cc1ccc(-n2c(C)cc(/C=C3\S/C(=N\c4ccccc4)NC3=O)c2C)cc1 | 9 | 28 | 15 |  |  |  | solubility kinetic [2]: 2 µg/mL (≈ 5.16 µM); Relative metabolic rate [4]: Low; microsomal CLint at 0.5 µM [5]: < 7 µL/min/mg; half-life at 0.5 µM [6]: > 245 min |
| Cc1cc(C(=O)O)c(C)n1-c1ccc(F)cc1 |  | > 5000 |  | 20 | 75 | 50 |  |
| Cc1cc(/C=C2\SC(N(CC#N)c3ccccc3)=NC2=O)c(C)n1-c1ccc(C(F)(F)F)cc1 | > 1000 | > 5000 |  |  |  |  |  |
| Cc1cc(C=O)c(C)n1-c1ccccc1 |  |  |  | 25 | 55 | 80 |  |
| CC(=O)N(C1=NC(=O)/C(=C/c2cc(C)n(-c3ccc(C(F)(F)F)cc3)c2C)S1)c1ccccc1 | 8 | 26 | 12 |  |  |  |  |
| CCOC(=O)c1cc(C)n(-c2ccc(C)cc2)c1C |  |  |  | 0 | 85 | 50 |  |
| Cc1cc(C(=O)Nc2c(C)n(C)n(-c3ccccc3)c2=O)c(C)n1-c1ccc(F)cc1 |  |  |  |  |  |  | inhibition at 80 µM (Plasmodium falciparum [8]): 100% |
| Cc1cc(C=O)c(C)n1-c1ccc(F)cc1 |  | > 5000 |  | 25 | 60 | 50 |  |
| O=C1N=C(Nc2ccccc2)S/C1=C\c1ccccc1 | > 1000 | > 5000 |  |  |  |  | inhibition at 100 µM (Plasmodium falciparum [15]): 100% |
| COc1ccc(-c2cc3ncnc(Oc4ccc(S(=O)(=O)N5CCOCC5)cc4)c3s2)cc1 |  |  |  |  |  |  | inhibition at 40 µM (Plasmodium falciparum [13]): 80% |
| Cc1cc(C(=O)O)c(C)n1-c1ccc(C(F)(F)F)cc1 |  |  |  | 0 | 25 | 0 |  |
